Measurements from article PMC9161616, “A first-in-human phase 1/2 study of FGF401 and combination of FGF401 with spartalizumab in patients with hepatocellular carcinoma or biomarker-selected solid tumors” (Journal of Experimental & Clinical Cancer Research : CR, 2022).
Where two headings read alike, the source gives them in different places.

Assay: Plasma pharmacokinetics of FGF401 (noncompartmental) and food effect
Type: in vivo, human
Description: Pharmacokinetic endpoints included plasma concentrations and PK parameters of FGF401 and spartalizumab. Pharmacokinetic parameters were determined with noncompartmental method(s) using Phoenix WinNonlin version 6.4 or above (Pharsight Corporation, Mountain View, Califormia, USA). Immunogenicity of spartalizumab was assessed through presence and/or concentration of anti-drug (spartalizumab) antibodies (ADA). Food effect on FGF401 exposure was evaluated through plasma concentration of FGF401 and relevant PK parameters when dosing under fed condition. Safety of the food effect was assessed through incidence and severity of AEs and serious AEs (SAEs), including changes in laboratory values, vital signs, and ECGs when dosing under fed condition. The PK analyses and summary statistics were based on pharmacokinetic analysis set. Individual as well as mean concentration-time profiles were constructed using concentration data for spartalizumab and FGF401. Descriptive statistics for PK parameters included mean, standard deviation, coefficient of variation (CV%) mean, geometric mean, median, minimum, and maximum, with only the latter 3 for time to reach maximum concentration (Tmax) and additional 90% CI for accumulation ratio (Racc). Zero concentrations were not included in the geometric mean calculations. Missing concentrations or PK parameter values were not imputed.

[1] = human, plasma, oral, 80 mg, Cycle 1 day 8, 80 mg Fasted, n=6, geometric mean (CV%)
[2] = human, plasma, oral, 80 mg, Cycle 1 day 8, 80 mg Fed, n=4, geometric mean (CV%)
[3] = human, plasma, oral, 150 mg, Cycle 1 day 8, 150 mg Fasted, n=6, geometric mean (CV%)

SMILES: COCCNc1cc(NC(=O)N2CCCc3cc(CN4CCN(C)CC4=O)c(C=O)nc32)ncc1C#N [FGF401, roblitinib]
- dose proportionality of exposures (AUC and Cmax) (50 to 150 mg, fasted and fasted-fed combined): increased slightly under dose proportion
- Racc (C1D8 and C2D1 versus C1D1): around 1
- Racc (Cycle 1 day 8, 50 mg Fasted, n=6, geometric mean (CV%)): 0.929 (12.1)
- Racc (Cycle 1 day 8, 80 mg Fasted, n=5, geometric mean (CV%)): 0.97 (14.3)
- Racc (Cycle 1 day 8, 80 mg Fed, n=4, geometric mean (CV%)): 1.04 (18.6)
- Racc (Cycle 1 day 8, 120 mg Fasted, n=24, geometric mean (CV%)): 1.03 (26.2)
- Racc (Cycle 1 day 8, 120 mg Fed, n=15, geometric mean (CV%)): 0.95 (22.5)
- Racc (Cycle 1 day 8, 150 mg Fasted, n=6, geometric mean (CV%)): 0.982 (33.3)
- food effect (dosed with low-fat meals, 80 mg and 120 mg): no food effect
- mean trough concentration at steady state (24 h post-dose) versus phospho-FGFR4 IC90 (even at 50 mg qd): approximately above this IC90
- AUC(0-inf) (human, plasma, oral, 50 mg, Cycle 1 day 8, 50 mg Fasted, n=6, geometric mean (CV%)): 3650 ng·h/mL
- half-life (human, plasma, oral, 50 mg, Cycle 1 day 8, 50 mg Fasted, n=6, geometric mean (CV%), read-out: T1/2 (converted)): 6.57 h
- Cmax (human, plasma, oral, 50 mg, Cycle 1 day 8, 50 mg Fasted, n=7, geometric mean (CV%)): 663 ng/mL
- AUC(0-t) (human, plasma, oral, 50 mg, Cycle 1 day 8, 50 mg Fasted, n=7, geometric mean (CV%), read-out: AUC0-24h): 3650 ng·h/mL
- AUC(0-t) (human, plasma, oral, 50 mg, Cycle 1 day 8, 50 mg Fasted, n=7, geometric mean (CV%), read-out: AUClast): 3460 ng·h/mL
- Tmax (human, plasma, oral, 50 mg, Cycle 1 day 8, 50 mg Fasted, n=7, median [min, max], read-out: Tmax): 1 h
- AUC(0-inf) [1]: 5130 ng·h/mL
- Cmax [1]: 838 ng/mL
- AUC(0-t) (human, plasma, oral, 80 mg, Cycle 1 day 8, 80 mg Fasted, n=6, geometric mean (CV%), read-out: AUC0-24h): 4850 ng·h/mL
- AUC(0-t) (human, plasma, oral, 80 mg, Cycle 1 day 8, 80 mg Fasted, n=6, geometric mean (CV%), read-out: AUClast): 4840 ng·h/mL
- half-life (human, plasma, oral, 80 mg, Cycle 1 day 8, 80 mg Fasted, n=6, geometric mean (CV%), read-out: T1/2 (converted)): 6.08 h
- Tmax (human, plasma, oral, 80 mg, Cycle 1 day 8, 80 mg Fasted, n=6, median [min, max], read-out: Tmax): 1.01 h
- AUC(0-inf) [2]: 5550 ng·h/mL
- Cmax [2]: 704 ng/mL
- AUC(0-t) (human, plasma, oral, 80 mg, Cycle 1 day 8, 80 mg Fed, n=4, geometric mean (CV%), read-out: AUC0-24h): 5290 ng·h/mL
- AUC(0-t) (human, plasma, oral, 80 mg, Cycle 1 day 8, 80 mg Fed, n=4, geometric mean (CV%), read-out: AUClast): 5280 ng·h/mL
- half-life (human, plasma, oral, 80 mg, Cycle 1 day 8, 80 mg Fed, n=4, geometric mean (CV%), read-out: T1/2 (converted)): 5.58 h
- Tmax (human, plasma, oral, 80 mg, Cycle 1 day 8, 80 mg Fed, n=4, median [min, max], read-out: Tmax): 2.5 h
- AUC(0-inf) (human, plasma, oral, 120 mg, Cycle 1 day 8, 120 mg Fasted, n=18, geometric mean (CV%)): 7590 ng·h/mL
- half-life (human, plasma, oral, 120 mg, Cycle 1 day 8, 120 mg Fasted, n=18, geometric mean (CV%), read-out: T1/2 (converted)): 5.43 h
- Cmax (human, plasma, oral, 120 mg, Cycle 1 day 8, 120 mg Fasted, n=24, geometric mean (CV%)): 1120 ng/mL
- AUC(0-t) (human, plasma, oral, 120 mg, Cycle 1 day 8, 120 mg Fasted, n=24, geometric mean (CV%), read-out: AUC0-24h): 6970 ng·h/mL
- AUC(0-t) (human, plasma, oral, 120 mg, Cycle 1 day 8, 120 mg Fasted, n=24, geometric mean (CV%), read-out: AUClast): 6480 ng·h/mL
- Tmax (human, plasma, oral, 120 mg, Cycle 1 day 8, 120 mg Fasted, n=24, median [min, max], read-out: Tmax): 1.04 h
- AUC(0-inf) (human, plasma, oral, 120 mg, Cycle 1 day 8, 120 mg Fed, n=15, geometric mean (CV%)): 7980 ng·h/mL
- half-life (human, plasma, oral, 120 mg, Cycle 1 day 8, 120 mg Fed, n=15, geometric mean (CV%), read-out: T1/2 (converted)): 5.58 h
- AUC(0-t) (human, plasma, oral, 120 mg, Cycle 1 day 8, 120 mg Fed, n=16, geometric mean (CV%), read-out: AUC0-24h): 7330 ng·h/mL
- Cmax (human, plasma, oral, 120 mg, Cycle 1 day 8, 120 mg Fed, n=18, geometric mean (CV%)): 1060 ng/mL
- AUC(0-t) (human, plasma, oral, 120 mg, Cycle 1 day 8, 120 mg Fed, n=18, geometric mean (CV%), read-out: AUClast): 7640 ng·h/mL
- Tmax (human, plasma, oral, 120 mg, Cycle 1 day 8, 120 mg Fed, n=18, median [min, max], read-out: Tmax): 3.01 h
- AUC(0-inf) [3]: 7850 ng·h/mL
- Cmax [3]: 1070 ng/mL
- AUC(0-t) (human, plasma, oral, 150 mg, Cycle 1 day 8, 150 mg Fasted, n=6, geometric mean (CV%), read-out: AUC0-24h): 7510 ng·h/mL
- AUC(0-t) (human, plasma, oral, 150 mg, Cycle 1 day 8, 150 mg Fasted, n=6, geometric mean (CV%), read-out: AUClast): 7550 ng·h/mL
- half-life (human, plasma, oral, 150 mg, Cycle 1 day 8, 150 mg Fasted, n=6, geometric mean (CV%), read-out: T1/2 (converted)): 5.24 h
- Tmax (human, plasma, oral, 150 mg, Cycle 1 day 8, 150 mg Fasted, n=6, median [min, max], read-out: Tmax): 2.42 h
- Tmax (human, plasma, oral, cycle 1 day 1, read-out: median Tmax across phase 1 treatment groups): 1 to 2.98 h
- Tmax (human, plasma, oral, cycle 1 day 8, read-out: median Tmax across phase 1 treatment groups): 1 to 3.01 h
- Tmax (human, plasma, oral, cycle 2 day 1, read-out: median Tmax across phase 1 treatment groups): 1.01 to 3.02 h
- half-life (human, plasma, oral, over all treatments and during all periods, read-out: terminal half-life (T1/2)): 4.91 to 6.57 h
- AUC (human, plasma, oral, 120 mg fasted, C1D8, geometric mean, CV 38.7%, read-out: AUCtau at steady state): 6970 ng·h/mL
- overall interpatient variability of drug exposure (in vivo): moderate
